Consider three compounds from ChEMBL document CHEMBL2074022, “Penetration of endogenous steroid hormones corticosterone, cortisol, aldosterone and progesterone into the brain is enhanced in mice deficient for both mdr1a and mdr1b P-glycoproteins” (J Neuroendocrinol, 2002).

What all share (conditions): in vivo
Data set [1] deals with P-glycoprotein 1 and 3 (MDR1a/MDR1b) (Mus musculus, UniProt P21447+P06795). Put plainly: (§1) TP_TRANSPORTER: increase in testes concentration in mdr1a/1b(-/-) mouse. Type of data set: functional, organism-based, Testis.
In data set [2] the target is T1, ATP-dependent translocase ABCB1 (Mus musculus, UniProt P21447). Described as §1. Type of data set: functional, organism-based, Testis.
T1 sequence (P21447 whole entry): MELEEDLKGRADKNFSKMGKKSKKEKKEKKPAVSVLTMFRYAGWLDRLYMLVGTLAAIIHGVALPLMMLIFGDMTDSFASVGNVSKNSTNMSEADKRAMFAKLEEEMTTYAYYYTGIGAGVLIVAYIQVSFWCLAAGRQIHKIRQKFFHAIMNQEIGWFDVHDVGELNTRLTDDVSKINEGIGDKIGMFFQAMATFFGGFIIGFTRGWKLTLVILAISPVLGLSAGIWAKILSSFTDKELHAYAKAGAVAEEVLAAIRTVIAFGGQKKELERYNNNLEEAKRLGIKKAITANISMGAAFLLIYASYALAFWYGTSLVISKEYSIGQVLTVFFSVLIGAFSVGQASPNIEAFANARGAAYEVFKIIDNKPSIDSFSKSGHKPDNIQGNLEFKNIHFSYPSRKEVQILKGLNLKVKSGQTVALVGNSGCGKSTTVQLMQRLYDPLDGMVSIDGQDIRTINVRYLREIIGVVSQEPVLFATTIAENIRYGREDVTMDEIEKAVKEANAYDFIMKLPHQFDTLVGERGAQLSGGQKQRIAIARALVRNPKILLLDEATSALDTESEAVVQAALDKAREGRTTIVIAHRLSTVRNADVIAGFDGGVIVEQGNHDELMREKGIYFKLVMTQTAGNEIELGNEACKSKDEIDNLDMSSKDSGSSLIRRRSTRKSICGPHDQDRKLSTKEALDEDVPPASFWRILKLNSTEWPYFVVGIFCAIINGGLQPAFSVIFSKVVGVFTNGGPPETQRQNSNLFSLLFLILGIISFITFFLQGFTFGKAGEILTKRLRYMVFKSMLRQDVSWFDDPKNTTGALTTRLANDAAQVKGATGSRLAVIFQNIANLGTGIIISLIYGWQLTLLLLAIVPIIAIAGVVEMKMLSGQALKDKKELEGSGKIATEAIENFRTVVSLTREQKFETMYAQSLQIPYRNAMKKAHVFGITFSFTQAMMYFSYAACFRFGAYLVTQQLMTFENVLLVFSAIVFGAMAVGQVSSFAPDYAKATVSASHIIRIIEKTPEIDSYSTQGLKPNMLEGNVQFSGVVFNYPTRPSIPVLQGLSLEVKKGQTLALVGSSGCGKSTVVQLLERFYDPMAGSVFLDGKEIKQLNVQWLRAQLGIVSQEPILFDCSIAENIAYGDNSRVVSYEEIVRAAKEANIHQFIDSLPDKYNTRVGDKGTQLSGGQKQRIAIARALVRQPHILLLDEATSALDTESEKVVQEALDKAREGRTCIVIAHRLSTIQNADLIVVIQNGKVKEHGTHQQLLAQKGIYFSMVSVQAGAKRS
Data set [3] has as its target T1, ATP-dependent translocase ABCB1. The data set can be described thus: TP_TRANSPORTER: increase in brain concentration in mdr1a/1b(-/-) mouse. Type of data set: functional, organism-based.

Molecules are shown by their SMILES.

As to `C[C@]12CCC(=O)C=C1CC[C@@H]1[C@@H]2[C@@H](O)C[C@]2(C=O)[C@@H](C(=O)CO)CC[C@@H]12` [ALDOSTERONE], the Activity entry in data set [1] is “substrate [+]”.
Same read-out and setting: under `C[C@]12CCC(=O)C=C1CC[C@@H]1[C@@H]2[C@@H](O)C[C@@]2(C)[C@H]1CC[C@]2(O)C(=O)CO` [HYDROCORTISONE] stands “substrate [+]”.
Regarding `CC(=O)[C@H]1CC[C@H]2[C@@H]3CCC4=CC(=O)CC[C@]4(C)[C@H]3CC[C@]12C` [PROGESTERONE], the Activity entry in data set [2] and in data set [3] was “substrate [+]” throughout.
